Experimental data as given in the NIST ThermoML archive (doi:10.1016/j.fluid.2004.09.013).

Conditions: for mass density: Fluid (supercritical or subcritical phases), Vibrating tube method

C=C(C)C [2-methylpropene]
Conditions	Critical density [kg/m3]	mass density [kg/m3]	vapor or sublimation pressure [kPa]
388.24 K, 14986 kPa	–	509.22	–
388.24 K, 19997 kPa	–	523.66	–
388.24 K, 25009 kPa	–	535.55	–
388.24 K, 29994 kPa	–	545.71	–
388.24 K, 35003 kPa	–	554.67	–
393.24 K, 3122 kPa	–	430.77	–
393.24 K, 4982 kPa	–	451.26	–
393.24 K, 9992 kPa	–	482.81	–
393.24 K, 14983 kPa	–	502.79	–
393.24 K, 20002 kPa	–	518.03	–
393.24 K, 25003 kPa	–	530.42	–
393.24 K, 29986 kPa	–	540.94	–
393.24 K, 34999 kPa	–	550.22	–
393.36 K, Liquid	–	–	2656.5
398.24 K, 3358 kPa	–	417.5	–
398.24 K, 4991 kPa	–	439.31	–
398.24 K, 10000 kPa	–	474.88	–
398.24 K, 15001 kPa	–	496.33	–
398.24 K, 19996 kPa	–	512.31	–
398.24 K, 24996 kPa	–	525.25	–
398.24 K, 30012 kPa	–	536.21	–
398.24 K, 35008 kPa	–	545.78	–
399.86 K, Liquid	–	–	2967.1
403.24 K, 3596 kPa	–	402.69	–
403.24 K, 4988 kPa	–	426.04	–
403.24 K, 14999 kPa	–	489.7	–
403.24 K, 19992 kPa	–	506.53	–
403.24 K, 24997 kPa	–	520.05	–
403.24 K, 30004 kPa	–	531.43	–
403.24 K, 34985 kPa	–	541.26	–
403.25 K, 9993 kPa	–	466.62	–
408.24 K, 3850 kPa	–	386.28	–
408.24 K, 4991 kPa	–	411.13	–
408.24 K, 14992 kPa	–	482.94	–
408.24 K, 19999 kPa	–	500.74	–
408.24 K, 24999 kPa	–	514.84	–
408.24 K, 30000 kPa	–	526.63	–
408.25 K, 9982 kPa	–	458.05	–
408.25 K, 34995 kPa	–	536.8	–
412.88 K, Liquid	–	–	3665.8
413.24 K, 4118 kPa	–	367.6	–
413.24 K, 30005 kPa	–	521.83	–
413.24 K, 35003 kPa	–	532.34	–
413.25 K, 4983 kPa	–	393.59	–
413.25 K, 9996 kPa	–	449.33	–
413.25 K, 14993 kPa	–	476.09	–
413.25 K, 19996 kPa	–	494.87	–
413.25 K, 24999 kPa	–	509.59	–
418.24 K, 4397 kPa	–	346.27	–
418.24 K, 4989 kPa	–	372.46	–
418.24 K, 14988 kPa	–	469.1	–
418.24 K, 19991 kPa	–	488.93	–
418.24 K, 24993 kPa	–	504.3	–
418.25 K, 9999 kPa	–	440.27	–
418.25 K, 30007 kPa	–	517.01	–
418.25 K, 34986 kPa	–	527.81	–
423.24 K, 5018 kPa	–	345.72	–
423.24 K, 19992 kPa	–	482.96	–
423.24 K, 30010 kPa	–	512.18	–
423.25 K, 9984 kPa	–	430.4	–
423.25 K, 14989 kPa	–	462	–
423.25 K, 25000 kPa	–	499.02	–
423.25 K, 34992 kPa	–	523.34	–
423.25 K, 39996 kPa	–	533.35	–
428.24 K, 5018 kPa	–	303.01	–
428.24 K, 24987 kPa	–	493.65	–
428.24 K, 34996 kPa	–	518.85	–
428.25 K, 9990 kPa	–	420.58	–
428.25 K, 14983 kPa	–	454.76	–
428.25 K, 19986 kPa	–	476.9	–
428.25 K, 30000 kPa	–	507.31	–
433.24 K, 5019 kPa	–	233.56	–
433.25 K, 9991 kPa	–	410.25	–
433.25 K, 14996 kPa	–	447.46	–
433.25 K, 19984 kPa	–	470.79	–
433.25 K, 24991 kPa	–	488.3	–
433.25 K, 30001 kPa	–	502.44	–
433.25 K, 34994 kPa	–	514.34	–
438.25 K, 5019 kPa	–	183.56	–
438.25 K, 9997 kPa	–	399.54	–
438.25 K, 14998 kPa	–	440.02	–
438.25 K, 19984 kPa	–	464.66	–
438.25 K, 24988 kPa	–	482.93	–
438.25 K, 30000 kPa	–	497.59	–
438.25 K, 34992 kPa	–	509.86	–
443.25 K, 5019 kPa	–	159.03	–
443.25 K, 9994 kPa	–	388.26	–
443.25 K, 14989 kPa	–	432.39	–
443.25 K, 20002 kPa	–	458.54	–
443.25 K, 24984 kPa	–	477.51	–
443.25 K, 29996 kPa	–	492.7	–
443.25 K, 34994 kPa	–	505.36	–
448.25 K, 5018 kPa	–	144.08	–
448.25 K, 9996 kPa	–	376.53	–
448.25 K, 14997 kPa	–	424.77	–
448.25 K, 19999 kPa	–	452.29	–
448.25 K, 24998 kPa	–	472.14	–
448.25 K, 29994 kPa	–	487.82	–
448.25 K, 35009 kPa	–	500.91	–
453.25 K, 5016 kPa	–	133.47	–
453.25 K, 9986 kPa	–	364.19	–
453.25 K, 14989 kPa	–	416.85	–
453.25 K, 19999 kPa	–	446.01	–
453.25 K, 25000 kPa	–	466.69	–
453.25 K, 29993 kPa	–	482.93	–
453.25 K, 35004 kPa	–	496.39	–
458.25 K, 5017 kPa	–	125.47	–
458.25 K, 9993 kPa	–	351.66	–
458.25 K, 14983 kPa	–	408.65	–
458.25 K, 19987 kPa	–	439.63	–
458.25 K, 25004 kPa	–	461.27	–
458.25 K, 29988 kPa	–	478.03	–
458.25 K, 34987 kPa	–	491.88	–
463.25 K, 5016 kPa	–	119.04	–
463.25 K, 9981 kPa	–	338.41	–
463.25 K, 14994 kPa	–	400.72	–
463.25 K, 19983 kPa	–	433.24	–
463.25 K, 25001 kPa	–	455.8	–
463.25 K, 29987 kPa	–	473.13	–
463.25 K, 34998 kPa	–	487.42	–
463.25 K, 39991 kPa	–	499.76	–
468.25 K, 5015 kPa	–	113.61	–
468.25 K, 9993 kPa	–	325.38	–
468.25 K, 14991 kPa	–	392.57	–
468.25 K, 19999 kPa	–	426.94	–
468.25 K, 24992 kPa	–	450.29	–
468.25 K, 29998 kPa	–	468.26	–
468.25 K, 34985 kPa	–	482.91	–
473.25 K, 5018 kPa	–	109.13	–
473.25 K, 9986 kPa	–	311.87	–
473.25 K, 14992 kPa	–	384.37	–
473.25 K, 20001 kPa	–	420.52	–
473.25 K, 24988 kPa	–	444.78	–
473.25 K, 29996 kPa	–	463.37	–
473.25 K, 34999 kPa	–	478.46	–
478.25 K, 5019 kPa	–	105.12	–
478.25 K, 9988 kPa	–	298.62	–
478.25 K, 14996 kPa	–	376.12	–
478.25 K, 19999 kPa	–	414.08	–
478.25 K, 24987 kPa	–	439.29	–
478.25 K, 30005 kPa	–	458.51	–
478.25 K, 34997 kPa	–	474	–
483.25 K, 5019 kPa	–	101.57	–
483.25 K, 9988 kPa	–	285.6	–
483.25 K, 14984 kPa	–	367.69	–
483.25 K, 19990 kPa	–	407.57	–
483.25 K, 24996 kPa	–	433.89	–
483.25 K, 29989 kPa	–	453.63	–
483.25 K, 35003 kPa	–	469.59	–
488.24 K, 4981 kPa	–	97.35	–
488.24 K, 20000 kPa	–	401.24	–
488.25 K, 9987 kPa	–	273.08	–
488.25 K, 14983 kPa	–	359.4	–
488.25 K, 24997 kPa	–	428.38	–
488.25 K, 30002 kPa	–	448.75	–
488.25 K, 35005 kPa	–	465.15	–
493.24 K, 4981 kPa	–	94.56	–
493.24 K, 9988 kPa	–	261.21	–
493.24 K, 14986 kPa	–	351.12	–
493.24 K, 19989 kPa	–	394.84	–
493.24 K, 24992 kPa	–	422.89	–
493.24 K, 30006 kPa	–	443.91	–
493.24 K, 35002 kPa	–	460.71	–
498.24 K, 5019 kPa	–	92.91	–
498.24 K, 19995 kPa	–	387.94	–
498.24 K, 30000 kPa	–	439.07	–
498.25 K, 9984 kPa	–	249.88	–
498.25 K, 14995 kPa	–	342.92	–
498.25 K, 24992 kPa	–	417.4	–
498.25 K, 34999 kPa	–	456.28	–
503.24 K, 4997 kPa	–	90.01	–
503.24 K, 9991 kPa	–	239.72	–
503.24 K, 14990 kPa	–	334.64	–
503.24 K, 19984 kPa	–	381.57	–
503.24 K, 24988 kPa	–	411.94	–
503.24 K, 30005 kPa	–	434.24	–
503.24 K, 34991 kPa	–	451.87	–
503.24 K, 39995 kPa	–	466.57	–
508.24 K, 5016 kPa	–	88.26	–
508.24 K, 9990 kPa	–	230.13	–
508.24 K, 14990 kPa	–	326.56	–
508.24 K, 19994 kPa	–	375.29	–
508.24 K, 24991 kPa	–	406.52	–
508.24 K, 30000 kPa	–	429.41	–
508.24 K, 34996 kPa	–	447.5	–
508.24 K, 39992 kPa	–	462.51	–
513.24 K, 5016 kPa	–	86.21	–
513.24 K, 9990 kPa	–	221.29	–
513.24 K, 14992 kPa	–	318.59	–
513.24 K, 19996 kPa	–	368.96	–
513.24 K, 24989 kPa	–	401.13	–
513.24 K, 30003 kPa	–	424.62	–
513.24 K, 35008 kPa	–	443.17	–
513.24 K, 39996 kPa	–	458.53	–
518.23 K, 5016 kPa	–	84.36	–
518.24 K, 9992 kPa	–	213.29	–
518.24 K, 14986 kPa	–	310.73	–
518.24 K, 19995 kPa	–	362.67	–
518.24 K, 24992 kPa	–	395.78	–
518.24 K, 29993 kPa	–	419.86	–
518.24 K, 34991 kPa	–	438.82	–
518.24 K, 39999 kPa	–	454.51	–
523.23 K, 5019 kPa	–	82.65	–
523.23 K, 9982 kPa	–	205.67	–
523.23 K, 14990 kPa	–	303.2	–
523.23 K, 19986 kPa	–	356.38	–
523.23 K, 24989 kPa	–	390.45	–
523.23 K, 29998 kPa	–	415.17	–
523.23 K, 39987 kPa	–	450.55	–
523.24 K, 34992 kPa	–	434.55	–
Liquid, visual observation in a variable volume cell:FP	233.97	–	–

Liquid
Conditions	Critical pressure [kPa]	Critical temperature [K]
–	4009.8	418.09
